Assay results reported in US20080039499A1, “Chemical Compounds” (priority 2004, published 2008).

Tested on: MCP-1 Mediated Calcium Flux in THP-1 Cells
Assay: MCP-1 mediated calcium flux in THP-1 cells (FLIPR)
Format: cell-based, human
Details: stimulation of THP-1 cells; from dose response curves; read-out: approximate EC50 of hMCP-1 for rise in [Ca2+]i
Description: a) MCP-1 Mediated Calcium Flux in THP-1 Cells
The human monocytic cell line THP-1 was grown in a synthetic cell culture medium RPMI 1640 supplemented with 10% foetal calf serum, 6 mM glutainine and Penicillin-Streptomycin (at 50 IU/ml penicillin, 50 μg streptomycin/ml, Gibco BRL). THP-1 cells were washed in assay buffer comprising of HBSS with Ca^2+ and Mg^2+ (without phenol red) (Gibco BRL)+20 mM HEPES+0.71 mg/ml Propenecid+2 mls/litre CaCl2 1M (BDH)+0.3 mg/ml BSA (Sigma) pH 7.4 and resuspended in the same buffer at a density of 1×10^6 cells/ml. The cells were then loaded with assay buffer+[…] FLUO-4 (molecular probes) for 40 min at 37° C., washed twice in assay buffer, and resuspended at 2×10^5 cells/ml. 100 μl of the cell suspension was added to the wells of black clear-bottomed 96 well plates, to give 2×10^4 cells/well. Cells were pelleted by centrifugation and washed with assay buffer. 100 ul of buffer+50 ul of compound was added to wells and incubated for 20 mins at (37° C.). Fluorescence was recorded using a FLIPR (FLuorometric Imaging Plate Reader—Molecular Devices). Cells were stimulated by addition of hMCP-1 to the wells.
Stimulation of THP-1 cells with hMCP-1 induced a rapid, transient rise in [Ca^2+]i in a specific and dose dependent manner. Dose response curves indicated an approximate EC50 of 4 nm. […]

EC50: ~4 nM
Substance: hMCP-1: human Monocyte chemoattractant protein-1, a C—C chemokine and CCR2 ligand, used to stimulate THP-1 cells
